Data taken from US4188398A, “Method for treating epilepsy” (priority 1978, dated 1980).

How the values were obtained:
[1] = General effect on behaviour of rabbits; format: in vivo; conditions: 500 to 600 mg/kg
[2] = Daily administration for eight weeks, rabbits (chronic toxicity); format: in vivo; conditions: 200 mg/kg intraperitoneally once a day
Experimental: The effects of daily administrations of the proposed anticonvulsant, carried out over prolonged periods of time, were studied on rabbits and rats.
A 2-percent colloidal solution of the proposed preparation was introduced intraperitoneally in doses of 200 mg/kg to five rabbits. This was done once a day for eight weeks. The same amounts of a colloidal solution of a carboxymethyl cellulose were administered intraperitoneally to three control rabbits.
Every day the animals' weight and body temperature were measured, and their general state was assessed. Once a week, a general blood analysis was made, the urine was analyzed for protein, blood and biliary pigments. Upon the end of the experiment, the animals were killed (the rabbits were destroyed by air embolism; the rats were decapitated). The liver, heart, kidneys, spleen, lungs and different parts of the small intestine and stomach of the freshly killed animals were taken for pathomorphological investigation.

[3] = Nicotine-induced convulsions; format: in vivo, mice
Experimental: (§1) The anticonvulsant action of the proposed preparation was tested on mice weighing 19 to 25 g and rats weighing 120 to 150 g by conducting maximum electroshock, corazol, strychnine, camphor, nicotine and arecoline tests.

[4] = Arecoline tremor test; parameters: species or system mice and rats; conditions: in vivo
[5] = Duration of Nembutal-induced sleep; format: in vivo; conditions: P = 0.05; Nembutal 40 mg/kg; proposed preparation 100 mg/kg, zarontin 150 mg/kg, milontin 100 mg/kg
Text: Nembutal was used as a trunk narcotic, and urethane as a cortical narcotic.

[6] = Corazol convulsion test
Experimental: as §1

[7] = Camphor convulsions test
Experimental: as §1

Structure (SMILES): CC(C)Oc1ccc(C2CC(=O)NC2=O)cc1 (stereo not drawn) [proposed preparation, α-/para-isopropoxyphenyl/succinimide]
- effect on behaviour of rabbits [1]: no conspicuous changes in the behaviour
- organ changes, macroscopic and microscopic histochemical investigation [2]: no changes were observed
- weight, body temperature, general state, blood and urine composition [2]: no changes were registered in the weight, body temperature and general state of the animals
- effect on intensity of nicotine-induced convulsions ([3]; 200 mg/kg, mice): markedly reduced the intensity of convulsions
- effect on nicotine-induced convulsions and tremor ([3]; 300 mg/kg): effectively prevents convulsions and tremor
- ED50 ([3]; Mus musculus): 190 mg/kg
- effect on arecoline tremor [4]: does not hinder the development of arecoline tremor
- Average Duration of Nembutal-Induced Sleep [5]: 99 ± 67.6 min
- antistrychnine effect, ranking of the three drugs (in words): the most pronounced
- ED50 (strychnine) (strychnine): 110 mg/kg
- protection index I=TD50/ED50, Strychnine (strychnine): 6.55
- protection index PI (mean lethal dose / mean effective dose), Strychnine (strychnine): 19.55
- ED50 ([6]; Mus musculus, read-out: ED50 (corazol)): 86 mg/kg
- protection index I=TD50/ED50, Corazol ([6]; corazol): 8.38
- protection index PI (mean lethal dose / mean effective dose), Corazol ([6]; corazol): 25
- ED50 ([7]; Mus musculus, read-out: ED50 (camphor)): 90 mg/kg
- protection index I=TD50/ED50, Camphor ([7]; camphor): 8
- protection index PI (mean lethal dose / mean effective dose), Camphor ([7]; camphor): 23.9
